Measurements as given in patent publication US11878965B2, “Inhibitors of peptidylarginine deiminases” (Gilead Sciences, Inc., priority 2020, dated 2024).

Target: human PAD4 (Homo sapiens (Human), UniProt Q9UM07)
Test: In Vitro PAD4 BAEE Biochemical Assay
Details: human PAD4, BAEE substrate; 5 nM PAD4, 2 mM calcium chloride, 3 mM BAEE; geometric mean of multiple experiments
Procedure, shortened: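 Recombinant human PAD4 (His-SUMO tag removed, E. coli-expressed), 5 nM, preincubated with compound and 2 mM CaCl2 30 min at 25 °C in MOPS pH 7.6 with DTT; 3 mM BAEE added for 2 h at 25 °C, EDTA stop. Released ammonia detected by o-phthalaldehyde/DTT fluorescence (ex 405, em 535 nm).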

Sequence of human PAD4 (Q9UM07 2-663): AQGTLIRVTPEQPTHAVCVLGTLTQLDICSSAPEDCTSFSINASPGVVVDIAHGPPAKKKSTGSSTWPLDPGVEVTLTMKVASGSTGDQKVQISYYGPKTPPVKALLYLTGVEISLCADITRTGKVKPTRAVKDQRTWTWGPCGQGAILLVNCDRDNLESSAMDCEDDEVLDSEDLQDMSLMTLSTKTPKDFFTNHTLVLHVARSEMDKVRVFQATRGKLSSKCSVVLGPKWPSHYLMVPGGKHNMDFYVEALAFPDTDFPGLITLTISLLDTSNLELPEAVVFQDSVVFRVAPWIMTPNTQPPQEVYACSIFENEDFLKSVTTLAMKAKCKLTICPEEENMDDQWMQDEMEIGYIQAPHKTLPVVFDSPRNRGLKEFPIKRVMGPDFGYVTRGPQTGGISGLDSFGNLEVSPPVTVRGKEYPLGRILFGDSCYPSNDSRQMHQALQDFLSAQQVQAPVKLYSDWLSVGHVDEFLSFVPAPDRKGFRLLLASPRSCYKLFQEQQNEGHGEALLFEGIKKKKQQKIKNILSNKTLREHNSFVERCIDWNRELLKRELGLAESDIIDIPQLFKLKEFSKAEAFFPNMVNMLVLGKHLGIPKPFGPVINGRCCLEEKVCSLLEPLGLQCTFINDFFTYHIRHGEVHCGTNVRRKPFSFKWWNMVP

| IC50 | Compound |
| --- | --- |
| 111 nM | COc1cc(C(=O)N2C[C@H](N)CCN2C)cc2nc(-c3cc4ccc([C@@H](C)NC(=O)C5(CCF)CC5)nc4n3CC3CC3)n(C)c12 [Example 215, N-((R)-1-(2-(5-((R)-5-amino-2-methylhexahydropyridazine-1-carbonyl)-7-methoxy-1-methyl-1H-benzo[d]imidazol-2-yl)-1-(cyclopropylmethyl)-1H-pyrrolo[2,3-b]pyridin-6-yl)ethyl)-1-(2-fluoroethyl)cyclopropane-1-carboxamide] |
| 346 nM | COc1cc(C(=O)N2C[C@H](N)CC[C@@H]2C)cc2nc(-c3cc4ccc(-c5cccnc5-c5cncnc5)nc4n3CC3CC3)n(C)c12 [Example 266, ((2S,5R)-5-amino-2-methylpiperidin-1-yl)(2-(1-(cyclopropylmethyl)-6-(2-(pyrimidin-5-yl)pyridin-3-yl)-1H-pyrrolo[2,3-b]pyridin-2-yl)-7-methoxy-1-methyl-1H-benzo[d]imidazol-5-yl)methanone] |
| 42 nM | COc1cc(C(=O)N2[C@H]3CC[C@@H]2[C@H](N)C3)cc2nc(-c3cc4ccc(N5[C@@H](C)CCCS5(=O)=O)nc4n3CC3CC3)n(C3CC3)c12 [Example 102, ((1R,2R,4S)-2-amino-7-azabicyclo[2.2.1]heptan-7-yl)(1-cyclopropyl-2-(1-(cyclopropylmethyl)-6-((S)-3-methyl-1,1-dioxido-1,2-thiazinan-2-yl)-1H-pyrrolo[2,3-b]pyridin-2-yl)-7-methoxy-1H-benzo[d]imidazol-5-yl)methanone] |
| 116 nM | COc1cc(C(=O)N2CCC[C@@H](N)C2)cc2nc(-c3cc4cc(F)c([C@@H](C)NC(=O)c5cnn(C)c5)cc4n3CC3CC3)n(C)c12 [Example 150, N-((R)-1-(2-(5-((R)-3-aminopiperidine-1-carbonyl)-7-methoxy-1-methyl-1H-benzo[d]imidazol-2-yl)-1-(cyclopropylmethyl)-5-fluoro-1H-indol-6-yl)ethyl)-1-methyl-1H-pyrazole-4-carboxamide] |
| 102 nM | COc1cc(C(=O)N2CCC[C@@H](N)C2)cc2nc(-c3cc4ccc([C@@H](C)NC(=O)C5CC5(F)F)cc4n3CC3CC3)n(C3CC3)c12 (stereo partly drawn) [Example 153, N-((R)-1-(2-(5-((R)-3-aminopiperidine-1-carbonyl)-1-cyclopropyl-7-methoxy-1H-benzo[d]imidazol-2-yl)-1-(cyclopropylmethyl)-1H-indol-6-yl)ethyl)-2,2-difluorocyclopropane-1-carboxamide] |
| 643 nM | COc1cc(C(=O)N2C[C@H](N)CC[C@@H]2C)cc2nc(-c3cc4ccc(N5C(=O)CCCC5C)nc4n3CC3CC3)n(C)c12 (stereo partly drawn) [Example 281, 1-(2-(5-((2S,5R)-5-amino-2-methylpiperidine-1-carbonyl)-7-methoxy-1-methyl-1H-benzo[d]imidazol-2-yl)-1-(cyclopropylmethyl)-1H-pyrrolo[2,3-b]pyridin-6-yl)-6-methylpiperidin-2-one] |
| 48.1 nM | COc1cc(C(=O)N2C[C@H](N)[C@@H]3CC[C@H]2C3)cc2nc(-c3cc4ccc([C@@H](C)NC(=O)c5ccc(Cl)nc5)nc4n3CC3CC3)n(C)c12 [Example 225, N-((R)-1-(2-(5-((1S,4R,5R)-4-amino-2-azabicyclo[3.2.1]octane-2-carbonyl)-7-methoxy-1-methyl-1H-benzo[d]imidazol-2-yl)-1-(cyclopropylmethyl)-1H-pyrrolo[2,3-b]pyridin-6-yl)ethyl)-6-chloronicotinamide] |
| 50000 nM | COc1cc(C(=O)N2CCC[C@@H](N)C2)cc2nc(-c3cc4ccc(N(CC5CCC5)S(C)(=O)=O)nc4n3CC3CC3)n(C)c12 [Example 21, (R)-N-(2-(5-(3-aminopiperidine-1-carbonyl)-7-methoxy-1-methyl-1H-benzo[d]imidazol-2-yl)-1-(cyclopropylmethyl)-1H-pyrrolo[2,3-b]pyridin-6-yl)-N-(cyclobutylmethyl) methanesulfonamide] |
| 655 nM | COc1cc(C(=O)N2CC3CCC3(N)C2)cc2nc(-c3cc4ccc(N(C(F)F)S(C)(=O)=O)nc4n3CC3CC3)n(C)c12 (stereo not drawn) [Example 78, N-(2-(5-(1-amino-3-azabicyclo[3.2.0]heptane-3-carbonyl)-7-methoxy-1-methyl-1H-benzo[d]imidazol-2-yl)-1-(cyclopropylmethyl)-1H-pyrrolo[2,3-b]pyridin-6-yl)-N-(difluoromethyl) methanesulfonamide] |
| 82.3 nM | COc1cc(C(=O)N2C[C@H](N)[C@@H]3CC[C@H]2C3)cc2nc(-c3cc4ccc([C@@H](C)NC(=O)C5CC(F)(F)C5)nc4n3CC3CC3)n(C)c12 [Example 228, N-((R)-1-(2-(5-((1S,4R,5R)-4-amino-2-azabicyclo[3.2.1]octane-2-carbonyl)-7-methoxy-1-methyl-1H-benzo[d]imidazol-2-yl)-1-(cyclopropylmethyl)-1H-pyrrolo[2,3-b]pyridin-6-yl)ethyl)-3,3-difluorocyclobutane-1-carboxamide] |

| Compound | IC50 |
| --- | --- |
| COc1cc(C(=O)N2[C@H]3CC[C@@H]2[C@H](N)C3)cc2nc(-c3cc4ccc([C@@H](C)NC(=O)N5CC[C@@H](F)C5)cc4n3CC3CC3)n(C)c12 [Example 237, (R)-N-((R)-1-(2-(5-((1R,2R,4S)-2-amino-7-azabicyclo[2.2.1]heptane-7-carbonyl)-7-methoxy-1-methyl-1H-benzo[d]imidazol-2-yl)-1-(cyclopropylmethyl)-1H-indol-6-yl)ethyl)-3-fluoropyrrolidine-1-carboxamide] | 18.5 nM |
| COc1cc(C(=O)N2[C@H]3CC[C@@H]2[C@H](N)C3)cc2nc(-c3cc4ccc([C@@H](C)N5CCCC5=O)nc4n3CC3CC3)n(C3CC3)c12 [Example 245] | 31.7 nM |

Same assay, conditions: recombinant PAD4 5 nM, 2 mM calcium chloride, 3 mM BAEE substrate; geometric mean of multiple experiments

| IC50 | Compound |
| --- | --- |
| 62 nM | COc1cc(C(=O)N2C[C@H](N)[C@@H]3CC[C@H]2C3)cc2nc(-c3cc4ccc([C@@H](C)NC(=O)C5(OC)CC5)nc4n3CC3CC3)n(C)c12 [Example 322, N-((R)-1-(2-(5-((1S,4R,5R)-4-amino-2-azabicyclo[3.2.1]octane-2-carbonyl)-7-methoxy-1-methyl-1H-benzo[d]imidazol-2-yl)-1-(cyclopropylmethyl)-1H-pyrrolo[2,3-b]pyridin-6-yl)ethyl)-1-methoxycyclopropane-1-carboxamide] |
| 382 nM | COc1cc(C(=O)N2C[C@H](N)[C@@H]3CC[C@H]2C3)cc2nc(-c3cc4ccc([C@@H](C)NC(=O)c5cccc(C(F)F)n5)nc4n3CC3CC3)n(C)c12 [Example 307, N-((R)-1-(2-(5-((1S,4R,5R)-4-amino-2-azabicyclo[3.2.1]octane-2-carbonyl)-7-methoxy-1-methyl-1H-benzo[d]imidazol-2-yl)-1-(cyclopropylmethyl)-1H-pyrrolo[2,3-b]pyridin-6-yl)ethyl)-6-(difluoromethyl) picolinamide] |
| 72 nM | COc1cc(C(=O)N2C[C@H](N)[C@@H]3CC[C@H]2C3)cc2nc(-c3cc4ccc([C@@H](C)NC(=O)C(C)(C)OC)nc4n3CC3CC3)n(C)c12 [Example 321, N-((R)-1-(2-(5-((1S,4R,5R)-4-amino-2-azabicyclo[3.2.1]octane-2-carbonyl)-7-methoxy-1-methyl-1H-benzo[d]imidazol-2-yl)-1-(cyclopropylmethyl)-1H-pyrrolo[2,3-b]pyridin-6-yl)ethyl)-2-methoxy-2-methylpropanamide] |
